Results: paper PMC5943518, “The protein kinase CK2 catalytic domain from Plasmodium falciparum: crystal structure, tyrosine kinase activity and inhibition” (Scientific Reports, 2018)

Experiments:
[1] = target: T1, PfCK2 (PfCK2α, protein kinase CK2 catalytic subunit) (Plasmodium falciparum, UniProt Q8IIR9); test: radiometric peptide kinase assay with γ[…]-ATP ([…] ATP); assay type: biochemical
T1 construct: gene PF3D7_1108400; Ile12 to Ser335 of PfCK2α

[2] = target: T2, PfCK2α (protein kinase CK2 catalytic α subunit), PfCK2αD179S (Plasmodium falciparum, UniProt Q8IIR9, D179S); test: co-crystal structure at […] Å without Mg2+; ITC (KD […] without Mg2+, […] with […] Mg2+); assay type: binding
T2 construct: gene PF3D7_1108400; Ile12 to Ser335 (catalytic domain), hexa-histidine tag at C-terminus
T2 sequence (Q8IIR9 12-335 D179S): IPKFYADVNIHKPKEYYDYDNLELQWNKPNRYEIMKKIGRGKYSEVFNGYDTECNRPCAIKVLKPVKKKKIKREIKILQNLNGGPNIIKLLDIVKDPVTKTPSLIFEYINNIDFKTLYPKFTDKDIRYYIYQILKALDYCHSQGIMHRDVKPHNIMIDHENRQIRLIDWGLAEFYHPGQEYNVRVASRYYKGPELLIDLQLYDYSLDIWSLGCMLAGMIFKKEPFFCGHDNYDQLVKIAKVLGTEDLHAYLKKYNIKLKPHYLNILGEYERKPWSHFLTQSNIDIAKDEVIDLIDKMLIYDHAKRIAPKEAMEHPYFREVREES

O=C(O)c1ccc2c(c1)nc(Nc1cccc(Cl)c1)c1ccncc12 [CX4945]
IC50 [1]: 0.0132 µM

Nc1ncnc2c1ncn2[C@@H]1O[C@H](COP(=O)(O)OP(=O)(O)OP(=O)(O)O)[C@@H](O)[C@H]1O [ATP]
Kd [2]: 22.3 µM
